Measurements: patent US20240384268A1, “Oligonucleotides” (Hudson Institute of Medical Research, priority 2021, published 2024)
In the oligonucleotide strings, read from the 5' end, every base follows the letter of its sugar. An asterisk marks phosphorothioate; unmarked linkages are phosphodiester. Other units and linkages are bracketed, terminal groups are in braces. A string of capitals states the bases alone. d = 2'-deoxy (DNA); m = 2'-O-methyl

Tests used:
[1] = molecular target: T1, TLR8 (Homo sapiens, UniProt Q9NR97); assay: HEK-TLR8 NF-κB-luciferase reporter, R848 or Motolimod stimulation (potentiation or inhibition); assay type: cell-based; design: expressed in transfected cells; host or cells: 293XLhTLR8 (HEK293); conditions: HEK-TLR8; for TLR8 HEK 5 uM: 3mer 2'OMe ASO at 5 uM, value relative to Ligand only = 1.000, NT = 0.000; for effect of 3-mer 2′OMe PS oligos on TLR8 sensing in HEK-TLR8 (in words): 5 μM naked 3-mer, Motolimod
T1 sequence (Q9NR97 27-1041): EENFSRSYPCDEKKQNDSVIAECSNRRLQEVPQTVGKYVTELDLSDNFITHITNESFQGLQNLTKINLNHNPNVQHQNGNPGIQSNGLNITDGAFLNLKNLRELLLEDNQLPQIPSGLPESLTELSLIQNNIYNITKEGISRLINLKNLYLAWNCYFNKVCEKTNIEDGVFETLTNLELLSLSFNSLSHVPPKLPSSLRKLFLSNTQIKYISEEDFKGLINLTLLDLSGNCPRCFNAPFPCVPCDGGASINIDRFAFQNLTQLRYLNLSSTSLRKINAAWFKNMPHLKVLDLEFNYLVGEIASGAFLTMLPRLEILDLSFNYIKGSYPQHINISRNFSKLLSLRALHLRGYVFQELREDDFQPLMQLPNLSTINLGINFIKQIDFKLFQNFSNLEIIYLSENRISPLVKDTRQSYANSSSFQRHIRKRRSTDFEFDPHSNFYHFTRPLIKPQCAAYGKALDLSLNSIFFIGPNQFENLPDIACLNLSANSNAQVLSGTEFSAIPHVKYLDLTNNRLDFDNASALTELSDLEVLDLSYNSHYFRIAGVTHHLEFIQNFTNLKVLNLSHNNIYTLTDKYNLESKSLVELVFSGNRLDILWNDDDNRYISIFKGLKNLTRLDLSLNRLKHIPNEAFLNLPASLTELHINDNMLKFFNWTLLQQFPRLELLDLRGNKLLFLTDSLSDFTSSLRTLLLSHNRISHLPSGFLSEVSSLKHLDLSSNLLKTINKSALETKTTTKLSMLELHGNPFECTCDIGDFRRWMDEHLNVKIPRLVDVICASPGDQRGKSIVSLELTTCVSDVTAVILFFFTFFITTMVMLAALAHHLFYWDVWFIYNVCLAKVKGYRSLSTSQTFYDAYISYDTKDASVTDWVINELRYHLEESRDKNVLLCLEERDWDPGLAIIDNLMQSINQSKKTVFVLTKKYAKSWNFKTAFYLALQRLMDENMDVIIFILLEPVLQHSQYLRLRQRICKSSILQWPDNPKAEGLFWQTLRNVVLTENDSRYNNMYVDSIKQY

[2] = molecular target: T1, TLR8; assay: R848-driven IP-10 production in THP-1 cells (TLR8); assay type: cell-based; design: expressed in transfected cells; conditions: 3mer 2'OMe ASO at 1 uM; raw values, Ligand only = 355.752, NT = 134.831;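 note: IP-10 by ELISA in supernatant after 7 h R848 stimulation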

dA*dG*dC (DNA AGC; listed as DNA, chemistry not fully specified)
TLR8 HEK 5 uM [1]: 1.411 | TLR8 1 uM [2]: 267.225

UCC (mU*mC*mC)
TLR8 HEK 5 uM [1]: 1.292 | TLR8 1 uM [2]: 346.575

AUU (mA*mU*mU)
TLR8 HEK 5 uM [1]: 0.762 | TLR8 1 uM [2]: 274.683

UUA (mU*mU*mA)
TLR8 HEK 5 uM [1]: 1.060 | TLR8 1 uM [2]: 350.207

dC*dA*dC (CAC; listed as RNA, chemistry not fully specified)
TLR8 HEK 5 uM [1]: 0.809 | TLR8 1 uM [2]: 344.415

dA*dA*dA (DNA AAA; listed as DNA, chemistry not fully specified)
TLR8 HEK 5 uM [1]: 0.859 | TLR8 1 uM [2]: 225.029

mGmUmU (mG*mU*mU) [GUU, 3-mer 2′OMe PS oligo]
TLR8 HEK 5 uM [1]: 0.668 | effect of 3-mer 2′OMe PS oligos on TLR8 sensing in HEK-TLR8 (in words) [1]: robustly inhibitory | TLR8 1 uM [2]: 166.278

mUmCmG (antisense mU*mC*mG) [660-3b]
TLR8 HEK 5 uM [1]: 2.839 | effect of 3-mer 2′OMe PS oligos on TLR8 sensing in HEK-TLR8 (in words) [1]: potentiated the sensing of R848 | TLR8 1 uM [2]: 746.272

dG*dC*dG [GCG]
TLR8 HEK 5 uM [1]: 1.191 | TLR8 1 uM [2]: 290.409

ACU (antisense mA*mC*mU)
TLR8 HEK 5 uM [1]: 0.896 | TLR8 1 uM [2]: 250.907
